Measured values published in patent publication US20210290580A1, “New use of carbamate ß phenylethanolamine analogues for enhancing intracellular clearance of LDL cholesterol and for combining therapy with statins to enhance the efficacy and reduce adverse effects” (priority 2018, published 2021).

Experiments:
LDL receptors = test: LDL receptor expression, anti-LDLR immunofluorescence in liver cells; format: cell-based, Mouse; conditions: 24 hours; for Up-regulating of LDL receptors (Intensity of fluoresces) MEAN %: hepatic (AML12) cells, control = 100
Method: Cells were incubated with florescence labeled LDL to study the up-taking and metabolite of LDL cholesterol by the cells. LDL specific antibody were used to study LDL receptors expressed by the cells. […] After 24 hours of treatments, the cells were washed and fixed with paraformaldehyde. Cells were then incubated with anti-LDLR primary antibody with 1:200 dilution at room temperature for 4 hours. After washed, the second antibody Alexa Fluor 488 with 1:200 dilutions was added and incubated at room temperature for 2 hours. The cells were washed again before examined under fluorescent microscope. The fluorescence anti-body bound LDL receptors in green and either bound or internalized fluoresces labeled LDL in red were examined separately or after merging. Fluorescent microscope equipped with a digital camera (Axio Observer 7). Computer software was used to quantify the intensity of fluorescence, which is correlated with the amount of LDL and LDL receptors bounded to antibodies.

Mouse liver AML12 cells [1] = test: Up-taking of fluorescence labeled LDL by liver cells; format: cell-based; conditions: 10 μM and 20 μM, 24 hours, compared between groups
Method: Mouse liver AML12 cells were seeded in 24 well plates in DMEM/F12 and supplemented with 10% heat-inactivated fetal bovine serum. Cells were incubated with florescence labeled LDL to study the up-taking and metabolite of LDL cholesterol by the cells. LDL specific antibody were used to study LDL receptors expressed by the cells. […] The fluorescence anti-body bound LDL receptors in green and either bound or internalized fluoresces labeled LDL in red were examined separately or after merging. Fluorescent microscope equipped with a digital camera (Axio Observer 7). Computer software was used to quantify the intensity of fluorescence, which is correlated with the amount of LDL and LDL receptors bounded to antibodies.

[2] = system: Pulmonary artery smooth muscle cell (PASMC)
Method: Cells were cultivated for 24 hours at room temperature. The cells then replaced again with FBS-free medium containing 10% CCK-8 reagent and cultivated for 3 hours in the dark.
A Multi-function micro plate reader (TriStar2S LB942) was used to measure the cell viability.
Cells added no drugs (0 μM) were used as control.

Human liver HepG2 cells = test: Intracellular cholesterol content in HepG2 cells loaded with LDL (Total Cholesterol Assay Kit); format: cell-based; conditions: LDL 40 μg/ml, 24 hours, LDL control = 100
Method: Human liver HepG2 cells were seeded in six well plates in DMEM/F12 supplemented with 10% heat-inactivated fetal bovine serum. Cells were then treated with different doses of R-bambuterol (R-BM) in the present of LDL (40 μg/ml). After 24 hours of incubation, total intracellular and extracellular cholesterol content were determined using Total Cholesterol Assay Kit E105 (Applygen Technologies Inc., Beijing, China) according to the manufacturer's protocol.

Mouse liver AML12 cells [3] = test: Intracellular cholesterol content in AML12 cells loaded with LDL; format: cell-based; conditions: for Intracellular cholesterol MEAN % (Synergistic Effects of Combining R-bambuterol and Statin): 10 μM (each drug 10 μM in the combination), LDL 40 μg/ml, AML12 cells, LDL Ctrl = 100; for Reduction of intercellular cholesterol, in words: 10 μM, Mouse liver AML12 cells
Method: Cells were then treated with different doses of R-bambuterol (R-BM) in the present of LDL (40 μg/ml). After 24 hours of incubation, total intracellular and extracellular cholesterol content were determined using Total Cholesterol Assay Kit E105 (Applygen Technologies Inc., Beijing, China) according to the manufacturer's protocol. The intracellular cholesterol is similar in control and LDL groups.

[4] = 20 μM (each drug 20 μM in the combination)

Row | SMILES | Up-regulating of LDL receptors (Intensity of fluoresces) MEAN % (LDL receptors; 10 μM) | Up-regulating of LDL receptors (Intensity of fluoresces) MEAN % (LDL receptors; [4]) | Increase in LDL receptors expression compared with statin treated groups (LDL receptors; AML12 cells) | Bound and intracellular fluorescence labeled LDL (Mouse liver AML12 cells [1]) | Toxicity to the viability of PASMC, in words [2] | Reduction of intercellular LDL cholesterol MEAN % (Human liver HepG2 cells; 5 μM) | Reduction of intercellular LDL cholesterol MEAN % (Human liver HepG2 cells; 10 μM) | Reduction of intercellular LDL cholesterol MEAN % (Human liver HepG2 cells; 20 μM) | Reduction of intercellular LDL cholesterol MEAN % (Human liver HepG2 cells; 40 μM) | Reduction of intercellular LDL cholesterol MEAN % (Human liver HepG2 cells; 80 μM) | Intracellular cholesterol MEAN % (Synergistic Effects of Combining R-bambuterol and Statin) (Mouse liver AML12 cells [3]) | Reduction of intercellular cholesterol, in words (Mouse liver AML12 cells [3])
1 | CN(C)C(=O)Oc1cc(OC(=O)N(C)C)cc(C(O)CNC(C)(C)C)c1 (stereo not shown) [R-BM, R-bambuterol] | 202.9% | 337.2% | twice as much as seen in statin treated groups | significantly more bound and intracellular fluorescence labeled LDL | no toxicity | 94.07% | 69.26% | 28.54% | 36.04% | 21.02% | 94.5% | less reduction of intercellular cholesterol
2 | CC(C)c1c(C(=O)Nc2ccccc2)c(-c2ccccc2)c(-c2ccc(F)cc2)n1CC[C@@H](O)C[C@@H](O)CC(=O)O [Statin, Atorvastatin] | 159.1% | 140.2% |  |  |  |  |  |  |  |  | 95.3% | little effects on intercellular cholesterol
